Patent US20140162980A1, “NOVEL MICROBIOCIDAL DIOXIME ETHER DERIVATIVES” (SYNGENTA CROP PROTECTION LLC, priority 2010, published 2014)

Columns and labels:
[1] = test system: Thanatephorus cucumeris (Rhizoctonia solani); assay: Thanatephorus cucumeris (Rhizoctonia solani) / liquid culture (foot rot, damping-off); assay type: cell-based; conditions: PDB potato dextrose broth, 24° C., 3-4 days after application, read-out: control of Thanatephorus cucumeris (inhibition of growth, photometrically)
Procedure: Thanatephorus Cucumeris (Rhizoctonia solani)/Liquid Culture (Foot Rot, Damping-Off): Mycelia fragments of a newly grown liquid culture of the fungus are directly mixed into nutrient broth (PDB potato dextrose broth). After placing a DMSO solution of the test compounds into a 96-well microtiter plate at an application rate 200 ppm, the nutrient broth containing the fungal material was added. The test plates were incubated at 24° C. and the inhibition of growth was determined photometrically 3-4 days after application.

Alternaria solani = Alternaria solani / tomato / leaf disc (early blight); assay type: in vivo; conditions: foliar, tomato leaf disks cv. Baby, inoculated 2 days after application, assessed 5-7 days after application, read-out: control of Alternaria solani (percent disease control compared to untreated)
Procedure: Alternaria Solani/Tomato/Leaf Disc (Early Blight): Tomato leaf disks cv. Baby are placed on agar in multiwell plates (24-well format) and sprayed with the formulated test compound diluted in water at an application rate of 200 ppm. The leaf disks are inoculated with a spore suspension of the fungus 2 days after application. The inoculated leaf disks are incubated at 23° C./21° C.

Pyrenophora teres = Pyrenophora teres / barley / leaf disc preventative (net blotch); assay type: in vivo; conditions: foliar, barley leaf segments cv Hasso, inoculated two days after application, assessed 5-7 days after application, read-out: control of Pyrenophora teres (disease control compared to untreated)
Procedure: Pyrenophora Teres/Barley/Leaf Disc Preventative (Net Blotch): Barley leaf segments cv Hasso are placed on agar in a 24-well plate and sprayed with formulated test compound diluted in water at an application rate of 200 ppm. The leaf segments are inoculated with a spore suspension of the fungus two days after application of the test solution. The inoculated leaf segments are incubated at 20° C. and 65% relative humidity under a light regime of 12/12 h (light/dark) in a climate cabinet and the activity of a compound is assessed as disease control compared to untreated when an appropriate level of disease damage appears in untreated check leaf segments (5-7 days after application).

[2] = test system: Blumeria graminis f. sp. tritici (Erysiphe graminis f. sp. tritici); assay: Blumeria graminis f. sp. tritici / wheat / leaf disc preventative (powdery mildew on wheat); assay type: in vivo; conditions: foliar, wheat leaf segments cv. Kanzler, inoculated 1 day after application, assessed 6-8 days after application, read-out: control of Blumeria graminis (percent disease control compared to untreated)
Procedure: Blumeria Graminis f. Sp. Tritici (Erysiphe Graminis f. Sp. Tritici)/Wheat/Leaf Disc Preventative (Powdery Mildew on Wheat):
Wheat leaf segments cv. Kanzler were placed on agar in a 24-well plate and sprayed with the formulated test compound diluted in water at an application rate of 200 ppm. The leaf disks were inoculated by shaking powdery mildew infected plants above the test plates 1 day after application. The inoculated leaf disks were incubated at 20° C. and 60% relative humidity under a light regime of 24 h darkness followed by 12 h/12 h (dark/light) in a climate chamber and the activity of a compound was assessed as percent disease control compared to untreated when an appropriate level of disease damage appears on untreated check leaf segments (6-8 days after application). The following compounds gave at least 80% control of Blumeria graminis: […]

Plasmopara viticola = assay: whole plant or invertebrate; assay type: in vivo; conditions: foliar, read-out: control of Plasmopara viticola (percent disease control compared to untreated)
[3] = test system: Botryotinia fuckeliana (Botrytis cinerea); assay: Botryotinia fuckeliana (Botrytis cinerea) / liquid culture (gray mould); assay type: cell-based; conditions: Vogels broth, 24° C., 3-4 days after application, read-out: control of Botryotinia fuckeliana (inhibition of growth, photometrically)
Procedure: Botryotinia Fuckeliana (Botrytis cinerea)/Liquid Culture (Gray Mould): Conidia of the fungus from cryogenic storage were directly mixed into nutrient broth (Vogels broth). After placing a DMSO solution of test compound into a 96-well microtiter plate at an application rate 200 ppm, the nutrient broth containing the fungal spores was added. The test plates were incubated at 24° C. and the inhibition of growth was determined photometrically 3-4 days after application.

[4] = test system: Puccinia recondita f. sp. tritici; assay: Puccinia recondita f. sp. tritici / wheat / leaf disc preventative (brown rust); assay type: in vivo; conditions: foliar, wheat leaf segments cv Kanzler, inoculated 1 day after application, assessed 7-9 days after application, read-out: control of Puccinia recondita f. sp. tritici, preventative (percent disease control compared to untreated)
Procedure: Puccinia Recondita f. Sp. Tritici/Wheat/Leaf Disc Preventative (Brown Rust): Wheat leaf segments cultivated variety (cv) Kanzler were placed on agar in 24-well plates and sprayed with formulated test compound diluted in water at an application rate of 200 ppm. The leaf disks were inoculated with a spore suspension of the fungus 1 day after application. The inoculated leaf segments were incubated at 19° C. and 75% relative humidity under a light regime of 12/12 h (light/dark) in a climate cabinet and the activity of a compound was assessed as percent disease control compared to untreated when an appropriate level of disease damage appears in untreated check leaf segments (7-9 days after application).

[5] = test system: Puccinia recondita f. sp. tritici; assay: Puccinia recondita f. sp. tritici / wheat / leaf disc curative (brown rust); assay type: in vivo; conditions: foliar, 200 ppm applied 1 day after inoculation, wheat leaf segments cv Kanzler, assessed 6-8 days after application, read-out: control of Puccinia recondita f. sp. tritici, curative (percent disease control compared to untreated)
Procedure: Puccinia Recondita f. Sp. Tritici/Wheat/Leaf Disc Curative (Brown Rust): Wheat leaf segments cv Kanzler were placed on agar in 24-well plates. The leaf segments were inoculated with a spore suspension of the fungus. The plates were stored in darkness at 19° C. and 75% relative humidity. The formulated test compound diluted in water was applied at an application rate of 200 ppm 1 day after inoculation.

Pythium ultimum = Pythium ultimum / liquid culture (seedling damping off); assay type: cell-based; conditions: Globisporangium ultimum, PDB potato dextrose broth, 24° C., 2-3 days after application, read-out: control of Pythium ultimum (inhibition of growth, photometrically)
Procedure: Pythium Ultimum/Liquid Culture (Seedling Damping Off): Mycelia fragments and oospores of a newly grown liquid culture of the fungus were directly mixed into nutrient broth (PDB potato dextrose broth). After placing a DMSO solution of test compound into a 96 well microtiter plate at an application rate 200 ppm, the nutrient broth containing the fungal mycelia/spore mixture was added. The test plates were incubated at 24° C. and the inhibition of growth was determined photometrically 2-3 days after application.

[6] = test system: Phaeosphaeria nodorum (Septoria nodorum); assay: Phaeosphaeria nodorum (Septoria nodorum) / wheat / leaf disc preventative (glume blotch); assay type: in vivo; conditions: Parastagonospora nodorum, foliar, wheat leaf segments cv Kanzler, inoculated 2 days after application, assessed 5-7 days after application, read-out: control of Phaeosphaeria nodorum (percent disease control compared to untreated)
Procedure: Phaeosphaeria Nodorum (Septoria nodorum)/Wheat/Leaf Disc Preventative (Glume Blotch): Wheat leaf segments cv Kanzler were placed on agar in a 24-well plate and sprayed with formulated test compound diluted in water at an application rate of 200 ppm. The leaf disks are inoculated with a spore suspension of the fungus 2 days after application. The inoculated test leaf disks are incubated at 20° C. and 75% relative humidity under a light regime of 12/12 h (light/dark) in a climate cabinet and the activity of a compound is assessed as percent disease control compared to untreated when an appropriate level of disease damage appears in untreated check leaf disks (5-7 days after application).

Phytophthora infestans = assay: whole plant or invertebrate; assay type: in vivo; conditions: in Solanum lycopersicum, foliar, read-out: control of Phytophthora infestans (percent disease control compared to untreated)
[7] = test system: Magnaporthe grisea (Pyricularia oryzae); assay: whole plant or invertebrate; assay type: in vivo; conditions: foliar, read-out: control of Magnaporthe grisea (percent disease control compared to untreated)
Sclerotinia sclerotiorum = Sclerotinia sclerotiorum / liquid culture (cottony rot); assay type: cell-based; conditions: PDB potato dextrose broth, 24° C., 3-4 days after application, read-out: control of Sclerotinia sclerotiorum (inhibition of growth, photometrically)
Procedure: Sclerotinia Sclerotiorum/Liquid Culture (Cottony Rot) Mycelia fragments of a newly grown liquid culture of the fungus are directly mixed into nutrient broth (PDB potato dextrose broth). After placing a (DMSO) solution of test compound into a microtiter plate at an application rate 200 ppm (96-well format) the nutrient broth containing the fungal material is added. The test plates are incubated at 24° C. and the inhibition of growth is determined photometrically 3-4 days after application.

Cc1ccc2c(n1)/C(=N/OCCCO/N=C1\CCCc3c(-c4ccccc4)cc(C)nc31)CCC2 [P.31]
≥ 80%: inhibition at 200 ppm [1] | pest or weed control at 200 ppm (Alternaria solani) | pest or weed control at 200 ppm (Pyrenophora teres) | pest or weed control at 200 ppm [2] | pest or weed control at 200 ppm (Plasmopara viticola) | inhibition at 200 ppm [3] | pest or weed control at 200 ppm [4] | pest or weed control at 200 ppm [5] | inhibition at 200 ppm (Pythium ultimum) | pest or weed control at 200 ppm [6]

C=C(CO/N=C1\CCCc2ccc(C)nc21)CO/N=C1\CCCc2ccc(C)nc21 [P.07]
≥ 80%: pest or weed control at 200 ppm (Alternaria solani) | pest or weed control at 200 ppm (Pyrenophora teres) | pest or weed control at 200 ppm [2] | inhibition at 200 ppm [3] | pest or weed control at 200 ppm [4] | pest or weed control at 200 ppm [5] | inhibition at 200 ppm (Pythium ultimum) | pest or weed control at 200 ppm [6]

Cc1ccc2c(n1)/C(=N/OCC(C)CO/N=C1\CCCc3ccc(C)nc31)CCC2 (stereo not shown) [P.09]
≥ 80%: pest or weed control at 200 ppm (Alternaria solani) | pest or weed control at 200 ppm (Pyrenophora teres) | pest or weed control at 200 ppm [2] | inhibition at 200 ppm [3] | pest or weed control at 200 ppm [4] | pest or weed control at 200 ppm [5] | inhibition at 200 ppm (Pythium ultimum) | pest or weed control at 200 ppm [6] | pest or weed control at 200 ppm (Phytophthora infestans)

Cc1ccc2c(n1)/C(=N/OCCCO/N=C1\CCCc3c(C(F)F)cc(C)nc31)CCC2 [P.46]
≥ 80%: pest or weed control at 200 ppm (Pyrenophora teres) | pest or weed control at 200 ppm [2] | inhibition at 200 ppm [3] | pest or weed control at 200 ppm [4] | pest or weed control at 200 ppm [7] | pest or weed control at 200 ppm [5] | inhibition at 200 ppm (Pythium ultimum) | pest or weed control at 200 ppm [6] | inhibition at 200 ppm (Sclerotinia sclerotiorum)

Cc1ccc2c(n1)/C(=N/OCC(C)(C)CO/N=C1\CCCc3ccc(C)nc31)CCC2 [P.02]
≥ 80%: inhibition at 200 ppm [1] | pest or weed control at 200 ppm (Pyrenophora teres) | pest or weed control at 200 ppm [2] | inhibition at 200 ppm [3] | pest or weed control at 200 ppm [4] | pest or weed control at 200 ppm [5] | inhibition at 200 ppm (Pythium ultimum) | pest or weed control at 200 ppm [6] | pest or weed control at 200 ppm (Phytophthora infestans)

Cc1ccc2c(n1)/C(=N/OCCCO/N=C1\CCCc3c(C)cc(C)nc31)CCC2 [P.30]
≥ 80%: inhibition at 200 ppm [1] | pest or weed control at 200 ppm (Alternaria solani) | pest or weed control at 200 ppm (Pyrenophora teres) | pest or weed control at 200 ppm [2] | pest or weed control at 200 ppm (Plasmopara viticola) | inhibition at 200 ppm [3] | pest or weed control at 200 ppm [4] | pest or weed control at 200 ppm [7] | pest or weed control at 200 ppm [5] | inhibition at 200 ppm (Pythium ultimum) | pest or weed control at 200 ppm [6] | pest or weed control at 200 ppm (Phytophthora infestans)

CCOc1cc(C)nc2c1CCC/C2=N\OCCCO/N=C1\CCCc2ccc(C)nc21 [P.32]
≥ 80%: pest or weed control at 200 ppm (Pyrenophora teres) | pest or weed control at 200 ppm [2] | pest or weed control at 200 ppm (Plasmopara viticola) | inhibition at 200 ppm [3] | pest or weed control at 200 ppm [4] | pest or weed control at 200 ppm [7] | pest or weed control at 200 ppm [6] | pest or weed control at 200 ppm (Phytophthora infestans)

Cc1ccc2c(n1)/C(=N/OCC(C)(C)CO/N=C1\CCCc3cccnc31)CCC2 [P.23]
≥ 80%: pest or weed control at 200 ppm (Pyrenophora teres) | pest or weed control at 200 ppm [2] | pest or weed control at 200 ppm [4] | pest or weed control at 200 ppm [5] | inhibition at 200 ppm (Pythium ultimum) | pest or weed control at 200 ppm [6] | pest or weed control at 200 ppm (Phytophthora infestans)

Cc1ccc2c(n1)/C(=N/OC[Si](C)(C)CO/N=C1\CCCc3ccc(C)nc31)CCC2 [P.20]
≥ 80%: inhibition at 200 ppm [1] | pest or weed control at 200 ppm (Alternaria solani) | pest or weed control at 200 ppm (Pyrenophora teres) | pest or weed control at 200 ppm [2] | inhibition at 200 ppm [3] | pest or weed control at 200 ppm [4] | pest or weed control at 200 ppm [5] | inhibition at 200 ppm (Pythium ultimum) | pest or weed control at 200 ppm [6]

Cc1ccc2c(n1)/C(=N/OCCCO/N=C1\CCCc3ccc(C)nc31)CCC2 [P.05]
≥ 80%: pest or weed control at 200 ppm (Alternaria solani) | pest or weed control at 200 ppm (Pyrenophora teres) | pest or weed control at 200 ppm [2] | inhibition at 200 ppm [3] | pest or weed control at 200 ppm [4] | pest or weed control at 200 ppm [5] | inhibition at 200 ppm (Pythium ultimum) | pest or weed control at 200 ppm [6] | pest or weed control at 200 ppm (Phytophthora infestans)

CCC(CO/N=C1\CCCc2ccc(C)nc21)CO/N=C1\CCCc2ccc(C)nc21 [P.10]
≥ 80%: pest or weed control at 200 ppm (Alternaria solani) | pest or weed control at 200 ppm (Pyrenophora teres) | pest or weed control at 200 ppm [2] | pest or weed control at 200 ppm (Plasmopara viticola) | inhibition at 200 ppm [3] | pest or weed control at 200 ppm [4] | pest or weed control at 200 ppm [5] | inhibition at 200 ppm (Pythium ultimum) | pest or weed control at 200 ppm [6] | pest or weed control at 200 ppm (Phytophthora infestans)
